The results in this text go back to patent US7304174B2, “CaSR antagonist” (Japan Tobacco Inc., priority 2003, dated 2007).

SMILES strings stand for the structures.

The target of this assay is T1, human calcium receptor (Homo sapiens, UniProt P41180).
T1 construct: expressed in transfected cells; host or cells: cell strain derived from rat adrenal, co-transformed with luciferase cDNA
T1 sequence (P41180 20-1078): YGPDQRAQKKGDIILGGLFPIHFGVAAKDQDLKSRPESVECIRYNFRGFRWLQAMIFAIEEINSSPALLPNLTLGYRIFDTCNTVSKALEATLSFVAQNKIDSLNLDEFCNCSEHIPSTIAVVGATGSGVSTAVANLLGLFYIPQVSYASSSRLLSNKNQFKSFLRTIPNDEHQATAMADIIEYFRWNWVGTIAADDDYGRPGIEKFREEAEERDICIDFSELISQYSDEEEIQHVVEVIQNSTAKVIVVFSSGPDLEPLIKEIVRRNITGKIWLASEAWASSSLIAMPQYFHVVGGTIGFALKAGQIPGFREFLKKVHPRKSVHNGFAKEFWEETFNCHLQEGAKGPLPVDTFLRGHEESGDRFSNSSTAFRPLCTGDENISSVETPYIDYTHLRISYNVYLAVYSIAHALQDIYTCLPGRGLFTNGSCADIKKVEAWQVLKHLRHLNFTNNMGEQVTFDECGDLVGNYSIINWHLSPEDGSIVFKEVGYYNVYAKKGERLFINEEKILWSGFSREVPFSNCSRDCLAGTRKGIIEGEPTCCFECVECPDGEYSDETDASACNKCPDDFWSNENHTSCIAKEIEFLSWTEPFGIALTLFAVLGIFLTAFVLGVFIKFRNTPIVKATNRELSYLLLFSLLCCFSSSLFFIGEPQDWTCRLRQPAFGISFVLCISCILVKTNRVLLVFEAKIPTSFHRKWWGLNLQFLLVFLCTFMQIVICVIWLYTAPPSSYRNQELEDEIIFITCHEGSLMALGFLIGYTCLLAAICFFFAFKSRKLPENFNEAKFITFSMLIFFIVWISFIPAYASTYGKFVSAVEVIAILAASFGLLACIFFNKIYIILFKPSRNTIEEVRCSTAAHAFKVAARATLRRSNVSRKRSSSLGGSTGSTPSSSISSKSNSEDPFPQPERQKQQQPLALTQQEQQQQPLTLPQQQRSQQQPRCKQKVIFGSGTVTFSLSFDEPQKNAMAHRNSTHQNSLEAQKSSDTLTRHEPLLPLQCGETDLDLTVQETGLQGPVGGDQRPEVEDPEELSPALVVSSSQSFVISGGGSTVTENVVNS
Kind of assay: Evaluation of antagonistic action on calcium receptor using reporter gene (luciferase). The assay is classed as cell-based. As to conditions: transformed rat adrenal derived cells, 5 mM calcium chloride, culture 4 hrs, luciferase activity; read-out: Reporter gene assay (IC50, concentration showing 50% inhibitory rate). A digest of the protocol:
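Rat adrenal-derived cells transfected with luciferase and human calcium receptor cDNA, in F12 with 0.5% dialyzed horse serum and 0.25% dialyzed fetal bovine serum. Luciferase luminescence gave % inhibition vs control and blank; IC50 at 50% inhibition.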
As to `C[C@@H](OC[C@H](O)CNC(C)(C)Cc1ccc2ccccc2c1)c1ccccc1-c1ccc(C(=O)O)c(N(C)C)c1` [Example 1-77, 3-(dimethylamino)-2′-[1-[(2R)-3-[[1-(naphthalen-2-yl)-2-methylpropan-2-yl]amino]-2-hydroxypropoxy]ethyl]biphenyl-4-carboxylic acid], the IC50 turned out to be 21 nM. The figure for `Cc1ccc(CC(C)(C)NC[C@@H](O)CO[C@H](C)c2ccccc2-c2cc3c(c(C(=O)O)c2)OCC3)cc1F` [Example 1-78, 2,3-dihydro-5-[2-[1-[(2R)-3-[[1-(3-fluoro-4-methylphenyl)-2-methylpropan-2-yl]amino]-2-hydroxypropoxy]ethyl]phenyl]benzofuran-7-carboxylic acid] is 20 nM; for `Cc1ccc(CC(C)(C)NC[C@@H](O)CO[C@H](C)c2ccccc2-c2ccc(C(=O)O)c(Cc3ccccc3)c2)cc1F` [Example 1-79, 3-benzyl-2′-[1-[(2R)-3-[[1-(3-fluoro-4-methylphenyl)-2-methylpropan-2-yl]amino]-2-hydroxypropoxy]ethyl]biphenyl-4-carboxylic acid] it is 4 nM; for `COc1cc(-c2ccccc2[C@@H](C)OC[C@H](O)CNC(C)(C)Cc2ccc(Cl)cc2F)ccc1C(=O)O` [Example 1-81, 2′-[1-[(2R)-3-[[1-(4-chloro-2-fluorophenyl)-2-methylpropan-2-yl]amino]-2-hydroxypropoxy]ethyl]-3-methoxybiphenyl-4-carboxylic acid] it is 26 nM. The figure for `COc1cc(-c2ccccc2[C@@H](C)OC[C@H](O)CNC(C)(C)Cc2ccc(Cl)c(F)c2)ccc1C(=O)O` [Example 1-82, 2′-[1-[(2R)-3-[[1-(4-chloro-3-fluorophenyl)-2-methylpropan-2-yl]amino]-2-hydroxypropoxy]ethyl]-3-methoxybiphenyl-4-carboxylic acid] is 27 nM; for `Cc1cc(C(=O)O)ccc1-c1ccccc1[C@@H](C)OC[C@H](O)CNC(C)(C)Cc1ccc(Cl)c(F)c1` [Example 1-83, 2′-[1-[(2R)-3-[[1-(4-chloro-3-fluorophenyl)-2-methylpropan-2-yl]amino]-2-hydroxypropoxy]ethyl]-2-methylbiphenyl-4-carboxylic acid] it is 16 nM. Turning to `Cc1cc(C(=O)O)ccc1-c1ccccc1[C@@H](C)OC[C@H](O)CNC(C)(C)Cc1ccc(Cl)cc1F` [Example 1-84, 2′-[1-[(2R)-3-[[1-(4-chloro-2-fluorophenyl)-2-methylpropan-2-yl]amino]-2-hydroxypropoxy]ethyl]-2-methylbiphenyl-4-carboxylic acid], the IC50 came out at 22 nM. The figure for `Cc1ccc(-c2ccccc2[C@@H](C)OC[C@H](O)CNC(C)(C)Cc2ccc3ccccc3c2)cc1C(=O)O` [Example 1-85, 4-methyl-2′-[1-[(2R)-3-[[1-(naphthalen-2-yl)-2-methylpropan-2-yl]amino]-2-hydroxypropoxy]ethyl]biphenyl-3-carboxylic acid] is 4 nM.

As to `Cc1ccc(CC(C)(C)NC[C@@H](O)CO[C@H](C)c2ccccc2-c2ccc(C)c(C(=O)O)c2)cc1F` [Example 1-86, 2′-[1-[(2R)-3-[[1-(3-fluoro-4-methylphenyl)-2-methylpropan-2-yl]amino]-2-hydroxypropoxy]ethyl]-4-methylbiphenyl-3-carboxylic acid], the IC50 is 14 nM. The figure for `Cc1cc(-c2ccccc2[C@@H](C)OC[C@H](O)CNC(C)(C)Cc2cc(Cl)cc(Cl)c2)ccc1C(=O)O` [Example 1-87, 2′-[1-[(2R)-3-[[1-(3,5-dichlorophenyl)-2-methylpropan-2-yl]amino]-2-hydroxypropoxy]ethyl]-3-methylbiphenyl-4-carboxylic acid] is 14 nM. The figure for `Cc1cc(-c2ccccc2[C@@H](C)OC[C@H](O)CNC(C)(C)Cc2ccc(Cl)c(F)c2)ccc1C(=O)O` [Example 1-88] is 14 nM; for `Cc1cc(-c2ccccc2[C@@H](C)OC[C@H](O)CNC(C)(C)Cc2cc(F)ccc2F)ccc1C(=O)O` [Example 1-89, 2′-[1-[(2R)-3-[[1-(2,5-difluorophenyl)-2-methylpropan-2-yl]amino]-2-hydroxypropoxy]ethyl]-3-methylbiphenyl-4-carboxylic acid] it is 271 nM.

For the compound `Cc1cc(F)c(CC(C)(C)NC[C@@H](O)CO[C@H](C)c2ccccc2-c2ccc(C(=O)O)c(C)c2)cc1Cl` [Example 1-90, 2′-[1-[(2R)-3-[[1-(5-chloro-2-fluoro-4-methylphenyl)-2-methylpropan-2-yl]amino]-2-hydroxypropoxy]ethyl]-3-methylbiphenyl-4-carboxylic acid], the IC50 was 271 nM. The figure for `Cc1cc(-c2ccccc2[C@@H](C)OC[C@H](O)CNC(C)(C)Cc2cccc(Cl)c2F)ccc1C(=O)O` [Example 1-91, 2′-[1-[(2R)-3-[[1-(3-chloro-2-fluorophenyl)-2-methylpropan-2-yl]amino]-2-hydroxypropoxy]ethyl]-3-methylbiphenyl-4-carboxylic acid] is 28 nM; for `Cc1cc(-c2ccccc2[C@@H](C)OC[C@H](O)CNC(C)(C)Cc2ccc(C(F)(F)F)c(F)c2)ccc1C(=O)O` [Example 1-92, 2′-[1-[(2R)-3-[[1-(3-fluoro-4-trifluoromethylphenyl)-2-methylpropan-2-yl]amino]-2-hydroxypropoxy]ethyl]-3-methylbiphenyl-4-carboxylic acid] it is 22 nM. The figure for `Cc1cc(-c2ccccc2[C@@H](C)OC[C@H](O)CNC(C)(C)Cc2cc(F)cc(Cl)c2)ccc1C(=O)O` [Example 1-93] is 27 nM; for `Cc1cc(-c2ccccc2[C@@H](C)OC[C@H](O)CNC(C)(C)Cc2cc(C(F)(F)F)cc(C(F)(F)F)c2)ccc1C(=O)O` [Example 1-94, 2′-[1-[(2R)-3-[[1-(3,5-ditrifluoromethylphenyl)-2-methylpropan-2-yl]amino]-2-hydroxypropoxy]ethyl]-3-methylbiphenyl-4-carboxylic acid] it is 28 nM; for `Cc1cc(-c2ccccc2[C@@H](C)OC[C@H](O)CNC(C)(C)Cc2ccc(Cl)c(C(F)(F)F)c2)ccc1C(=O)O` [Example 1-97, 2′-[1-[(2R)-3-[[1-(4-chloro-3-trifluoromethylphenyl)-2-methylpropan-2-yl]amino]-2-hydroxypropoxy]ethyl]-3-methylbiphenyl-4-carboxylic acid] it is 106 nM. Turning to `Cc1ccc(CC(C)(C)NC[C@@H](O)CO[C@H](C)c2ccccc2-c2ccc(C(=O)O)c(C(C)(C)C)c2)cc1F` [Example 1-98, 2′-[1-[(2R)-3-[[1-(3-fluoro-4-methylphenyl)-2-methylpropan-2-yl]amino]-2-hydroxypropoxy]ethyl]-3-t-butylbiphenyl-4-carboxylic acid], the IC50 came out at 13 nM.

As to `C[C@@H](OC[C@H](O)CNC(C)(C)Cc1ccc(Cl)cc1F)c1ccccc1-c1ccc(C(=O)O)c(C(C)(C)C)c1` [Example 1-99, 2′-[1-[(2R)-3-[[1-(4-chloro-2-fluorophenyl)-2-methylpropan-2-yl]amino]-2-hydroxypropoxy]ethyl]-3-t-butylbiphenyl-4-carboxylic acid], the IC50 came out at 23 nM.

Regarding `C[C@@H](OC[C@H](O)CNC(C)(C)Cc1ccc(Cl)c(F)c1)c1ccccc1-c1ccc(C(=O)O)c(C(C)(C)C)c1` [Example 1-100, 2′-[1-[(2R)-3-[[1-(4-chloro-3-fluorophenyl)-2-methylpropan-2-yl]amino]-2-hydroxypropoxy]ethyl]-3-t-butylbiphenyl-4-carboxylic acid], the IC50 came to 17 nM. Take `Cc1ccc(CC(C)(C)NC[C@@H](O)CO[C@H](C)c2ccccc2-c2ccc(C(=O)O)c(N3CCOCC3)c2)cc1F` [Example 1-102, 2′-[1-[(2R)-3-[[1-(3-fluoro-4-methylphenyl)-2-methylpropan-2-yl]amino]-2-hydroxypropoxy]ethyl]-3-morpholinobiphenyl-4-carboxylic acid]: the IC50 was found to be 14 nM. Turning to `Cc1ccc(CC(C)(C)NC[C@@H](O)CO[C@H](C)c2ccccc2-c2ccc(C(=O)O)c(OC(F)(F)F)c2)cc1F` [Example 1-103, 2′-[1-[(2R)-3-[[1-(3-fluoro-4-methylphenyl)-2-methylpropan-2-yl]amino]-2-hydroxypropoxy]ethyl]-3-(trifluoromethoxy)biphenyl-4-carboxylic acid], the IC50 is 3 nM.
